Read-outs that look alike come from different tables or passages of the source.
How the values were obtained:
[1] = tested on: DHX9 (circBRIP1 mRNA in HCT116 cells); assay: DHX9 circBRIP1 Cellular Target Engagement SYBR Green Assay; type: cell-based; conditions: Homo sapiens, HCT-116, circBRIP1 qPCR, 72 hours
[2] = target: T1, Human recombinant DHX9 protein (Homo sapiens, UniProt Q08211); assay: DHX9 ATPase assay (ADP-Glo biochemical assay); conditions: for DHX9 Biochemical Max Inhibition: maximum inhibition in ATPase assay, 10 μM Aurintricarboxylic acid = 100%
T1 construct: purchased Viva
T1 sequence (Q08211 whole entry): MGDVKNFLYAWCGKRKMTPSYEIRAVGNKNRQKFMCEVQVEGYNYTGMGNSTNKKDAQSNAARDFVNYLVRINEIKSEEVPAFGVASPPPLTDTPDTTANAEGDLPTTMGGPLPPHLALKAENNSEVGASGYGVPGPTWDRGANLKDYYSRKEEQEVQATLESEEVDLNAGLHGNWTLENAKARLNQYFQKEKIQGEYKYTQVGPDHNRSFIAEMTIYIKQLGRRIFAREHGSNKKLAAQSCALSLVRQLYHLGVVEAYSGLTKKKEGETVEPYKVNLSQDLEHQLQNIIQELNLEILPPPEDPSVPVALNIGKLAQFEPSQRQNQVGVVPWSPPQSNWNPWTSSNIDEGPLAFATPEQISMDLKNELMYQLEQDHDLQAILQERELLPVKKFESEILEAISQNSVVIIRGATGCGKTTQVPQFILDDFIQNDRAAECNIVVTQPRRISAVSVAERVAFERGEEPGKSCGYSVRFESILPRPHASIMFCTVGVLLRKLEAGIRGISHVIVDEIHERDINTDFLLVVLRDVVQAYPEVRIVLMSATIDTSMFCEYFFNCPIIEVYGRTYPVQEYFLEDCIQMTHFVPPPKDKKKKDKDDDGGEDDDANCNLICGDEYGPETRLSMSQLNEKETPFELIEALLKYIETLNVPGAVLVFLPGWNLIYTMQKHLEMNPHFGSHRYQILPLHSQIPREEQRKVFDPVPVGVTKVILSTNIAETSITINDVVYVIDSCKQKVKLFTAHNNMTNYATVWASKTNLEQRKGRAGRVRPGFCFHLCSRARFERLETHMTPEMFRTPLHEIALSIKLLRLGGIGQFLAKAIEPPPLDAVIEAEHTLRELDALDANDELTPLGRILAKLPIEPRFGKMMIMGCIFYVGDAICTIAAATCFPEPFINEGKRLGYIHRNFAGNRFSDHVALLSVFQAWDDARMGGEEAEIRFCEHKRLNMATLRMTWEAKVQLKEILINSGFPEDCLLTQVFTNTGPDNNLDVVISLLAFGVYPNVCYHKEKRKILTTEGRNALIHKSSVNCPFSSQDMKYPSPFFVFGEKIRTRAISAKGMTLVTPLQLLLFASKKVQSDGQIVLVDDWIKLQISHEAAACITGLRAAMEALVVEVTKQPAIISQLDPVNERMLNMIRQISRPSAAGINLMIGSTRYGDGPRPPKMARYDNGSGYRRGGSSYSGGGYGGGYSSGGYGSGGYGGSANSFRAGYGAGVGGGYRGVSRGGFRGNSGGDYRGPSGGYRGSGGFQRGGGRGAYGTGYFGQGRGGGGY

[3] = read-out: DHX9 Biochemical Inflection Point

Row | EC50 [1] [nM] | DHX9 Biochemical Max Inhibition [2] [%] | IC50 [2, 3] [nM] | Compound | IC50 [2] [nM]
1 | > 30000 | 83.3 | 355 | CS(=O)(=O)Nc1cccc(NC(=O)c2ccn(-c3c(F)cccc3F)n2)c1 [Example 12] | –
2 | > 30000 | 70.4 | 579 | Cc1cc(C)nc(-n2nc(C(=O)Nc3cccc(NS(C)(=O)=O)c3)cc2C)n1 [Example 15] | –
3 | > 30000 | 72 | 664 | CC(=O)c1ccc(S(=O)(=O)Nc2ccc(C(=O)Nc3cccc(NS(C)(=O)=O)c3)cc2)cc1 [Example 20] | –
4 | > 30000 | 80.3 | 864 | CS(=O)(=O)Nc1cccc(NC(=O)c2ccc(N3CCCC3)cc2)c1 [Example 31] | –
5 | > 30000 | 65.4 | 1020 | CS(=O)(=O)Nc1cccc(NC(=O)c2csc(-c3nnc[nH]3)n2)c1 [Example 33] | –
6 | > 30000 | 72.8 | 371 | CS(=O)(=O)Nc1cccc(NC(=O)c2cccc(-n3cccn3)c2)c1 [Example 40] | –
7 | 27400 | 61.2 | 285 | CS(=O)(=O)Nc1cccc(NC(=O)c2cnn(-c3ccccn3)c2)c1 [Example 41] | –
8 | > 30000 | 47.2 | 6510 | CS(=O)(=O)Nc1cccc(NC(=O)c2cc(-c3cccs3)ccn2)c1 [Example 44] | –
9 | > 30000 | 66.5 | 45.8 | CS(=O)(=O)Nc1cccc(NC(=O)c2cc(-c3cccc(C(N)=O)c3)cs2)c1 [Example 50] | –
10 | 22700 | 70.4 | 188 | CS(=O)(=O)Nc1cccc(NC(=O)c2cc(-c3ccc(F)cc3)cs2)c1 [Example 53] | –
11 | 21400 | 68.2 | 148 | COc1cccc(-c2csc(C(=O)Nc3cccc(NS(C)(=O)=O)c3)c2)c1 [Example 56] | –
12 | – | 66.5 | 182 | CS(=O)(=O)Nc1cccc(NC(=O)c2cc(C(=O)NCc3ccc(CN4CCOCC4)cc3)cs2)c1 [Example 124] | –
13 | – | 71.7 | 64.9 | COc1cc(Cl)cc(NC(=O)c2csc(C(=O)Nc3cccc(NS(C)(=O)=O)c3)c2)c1 [Example 125] | –
14 | – | 68.3 | 115 | CC(C)(C)NC(=O)c1ccc(NC(=O)c2csc(C(=O)Nc3cccc(NS(C)(=O)=O)c3)c2)cc1 [Example 127] | –
15 | – | 64.6 | 146 | CS(=O)(=O)Nc1cccc(NC(=O)c2cc(C(=O)Nc3ccc(-c4ccncc4)cc3)cs2)c1 [Example 128] | –
16 | – | 67.2 | 88.9 | CS(=O)(=O)Nc1cccc(NC(=O)c2cc(C(=O)Nc3cnc4ccccn34)cs2)c1 [Example 129] | –
17 | – | 69.2 | 324 | COc1ccc(NC(=O)c2csc(C(=O)Nc3cccc(NS(C)(=O)=O)c3)c2)cc1 [Example 130] | –
18 | – | 65.8 | 52.2 | Cn1c(=O)n(C)c2cc(NC(=O)c3csc(C(=O)Nc4cccc(NS(C)(=O)=O)c4)c3)ccc21 [Example 131] | –

Row | EC50 [1] [nM] | DHX9 Biochemical Max Inhibition [2] [%] | IC50 [2, 3] [nM] | Compound | IC50 [2] [nM]
19 | – | 70.3 | 171 | CS(=O)(=O)Nc1cccc(NC(=O)c2cc(C(=O)Nc3cccc(-c4cccnc4)c3)cs2)c1 [Example 133] | –
20 | – | 66.9 | 58 | COCc1cccc(NC(=O)c2csc(C(=O)Nc3cccc(NS(C)(=O)=O)c3)c2)c1 [Example 134] | –
21 | – | 65.6 | 211 | CC(C)Oc1ccccc1NC(=O)c1csc(C(=O)Nc2cccc(NS(C)(=O)=O)c2)c1 [Example 135] | –
22 | – | 72.9 | 127 | CS(=O)(=O)Nc1cccc(NC(=O)c2cc(C(=O)NC3CCc4ccccc43)cs2)c1 (centres unmarked) [Example 136] | –
23 | – | 76.6 | 116 | CS(=O)(=O)Nc1cccc(NC(=O)c2cc(C(=O)Nc3ccccc3CC#N)cs2)c1 [Example 138] | –
24 | – | 68.9 | 40.5 | CNC(=O)c1ccc(NC(=O)c2csc(C(=O)Nc3cccc(NS(C)(=O)=O)c3)c2)cc1 [Example 139] | –
25 | – | 70.1 | 189 | CS(=O)(=O)Nc1cccc(NC(=O)c2cc(C(=O)NCCc3c[nH]c4ccccc34)cs2)c1 [Example 140] | –
26 | – | 66.3 | 92.6 | CS(=O)(=O)Nc1cccc(NC(=O)c2cc(C(=O)NCc3nc4ccccc4[nH]3)cs2)c1 [Example 141] | –
27 | – | 72.6 | 167 | COc1ccc(OC)c(CCNC(=O)c2csc(C(=O)Nc3cccc(NS(C)(=O)=O)c3)c2)c1 [Example 142] | –
28 | – | 73.3 | 91.5 | CS(=O)(=O)Nc1cccc(NC(=O)c2cc(C(=O)Nc3ccccc3CCO)cs2)c1 [Example 143] | –
29 | – | 65.9 | 146 | CS(=O)(=O)Nc1cccc(NC(=O)c2cc(C(=O)NCc3n[nH]c4ccccc34)cs2)c1 [Example 144] | –
30 | – | 67.7 | 105 | CS(=O)(=O)Nc1cccc(NC(=O)c2cc(C(=O)NCc3ccc4[nH]ccc4c3)cs2)c1 [Example 145] | –
31 | – | 71.2 | 38.7 | CS(=O)(=O)Nc1cccc(NC(=O)c2cc(C(=O)Nc3nc4ccccc4[nH]3)cs2)c1 [Example 146] | –
32 | – | 64.7 | 229 | Cc1nc(-c2cccc(NC(=O)c3csc(C(=O)Nc4cccc(NS(C)(=O)=O)c4)c3)c2)cs1 [Example 147] | –
33 | – | 58.2 | 5360 | CS(=O)(=O)Nc1cccc(NC(=O)c2cc(C(=O)Nc3cc(-c4ccccc4)[nH]n3)cs2)c1 [Example 148] | –
34 | – | 69.8 | 50.7 | CS(=O)(=O)Nc1cccc(NC(=O)c2cc(C(=O)Nc3ccc(CCO)cc3)cs2)c1 [Example 149] | –
35 | – | 68.6 | 102 | CS(=O)(=O)Nc1cccc(NC(=O)c2cc(C(=O)NCCN3CCCCC3)cs2)c1 [Example 150] | –
36 | – | 68.5 | 81.1 | CS(=O)(=O)Nc1cccc(NC(=O)c2cc(C(=O)NCCC3CC3)cs2)c1 [Example 162] | –

Row | Compound | EC50 [1] [nM] | DHX9 Biochemical Max Inhibition [2] [%] | IC50 [2, 3] [nM] | IC50 [2] [nM]
37 | CS(=O)(=O)Nc1cccc(NC(=O)c2cnn(-c3ccccc3)c2)c1 [Example 1] | > 30000 | 71.6 | 339 | –
38 | Cc1cc(C(=O)Nc2cccc(NS(C)(=O)=O)c2)nn1Cc1ccccc1 [Example 154, 1-benzyl-N-(3-methanesulfonamidophenyl)-5-methyl-1H-pyrazole-3-carboxamide] | – | 68.4 | 3890 | –
39 | CS(=O)(=O)Nc1cccc(NC(=O)c2cc(NCc3ccccc3)cs2)c1 [Example 155, 4-(benzylamino)-N-(3-(methylsulfonamido)phenyl)thiophene-2-carboxamide] | – | 72.3 | 1010 | –
40 | CS(=O)(=O)Nc1cccc(NC(=O)c2cc(-c3ccccc3)cs2)n1 [Example 156, N-(6-methanesulfonamidopyridin-2-yl)-4-phenylthiophene-2-carboxamide] | – | 63.7 | – | 1920

Reference: patent US20250179013A1, “INHIBITORS OF RNA HELICASE DHX9 AND USES THEREOF” (ACCENT THERAPEUTICS, INC., priority 2022, published 2025)
